Here are results for three molecules from patent publication US20210315840A1, “SOLID ORAL DOSAGE FORMS OF KETAMINE DERIVATIVES” (priority 2017, published 2021).

One data set has as its system mouse. Put plainly: Progressive ratio test in the mouse.
[1] abbreviates: 300 mg/kg IP daily for 4 days, listed as 2R,6R-HNK.
The mark [2] stands for this setting: 300 mg/kg, replication after 3-week wash-out, listed as 2R,6R-HNK.
Where [3] appears, read: dose matched to 300 mg/kg 2R,6R-HNK.

“Also recorded” adds a separate entry of the source. Like-named read-outs stand apart in the source and are kept apart here.

As for `N[C@@]1(c2ccccc2Cl)CCC[C@@H](O)C1=O` [2R,6R-hydroxynorketamine L-pyroglutamate], the “average responses per minute, higher compared with vehicle” value in the data set on mouse (300 mg/kg IP) is 29%. Besides, in the data set with mouse (300 mg/kg IP daily for 4 days), the “number of target touches compared to ketamine and vehicle groups” value was “significant increase”. In addition, in the data set with mouse (300 mg/kg IP daily for 4 days, tested 20 minutes after injection), the “breakpoint compared to vehicle and ketamine” value is reported as “significant increase”. Further, in the data set on mouse (setting [1]), the “% of correct touches” value is on record as “significant increase; also recorded: significantly increased” and the “ratio of target touches to blank touches” value is “significant increase; also recorded: significantly increased”. Besides, the “rate of responding (running rate) compared to ketamine and vehicle groups” value with mouse (300 mg/kg IP, 60 minute test session) is reported as “higher rate of responding”. Moreover, the “predicted peak responding (running rate coefficient)” value in the data set on mouse (300 mg/kg IP, p=0.12) is given as “trend toward a main effect of drug”. In addition, the “average responses per minute, higher compared with ketamine” value in the data set on mouse (300 mg/kg IP, ketamine 10 mg/kg) is recorded as 59%. The “breakpoint compared to vehicle and ketamine” value in the data set with mouse (300 mg/kg, replication after 3-week wash-out) was “significant increase”. In addition, in the data set with mouse (setting [2]), the “% of correct touches” value was “significant increase; also recorded: increased”, the “number of target touches” value is reported as “significant increase; also recorded: increased” and the “ratio of target touches to blank touches” value is listed as “significant increase; also recorded: increased”. For the same molecule, in the data set on mouse (doses below 30 mg/kg), the cognitive measures result is reported as “No increase”.
For the molecule `O=C1CC[C@@H](C(=O)[O-])N1.[Na+]` [NaPg, sodium L-pyroglutamate, reference compound], in the data set with mouse (setting [3]), the any measure examined entry is reported as “did not significantly affect” and the “breakpoint compared to vehicle controls” value is “did not increase”.
On to `CC(C)NCC(O)COc1cccc2ccccc12` (stereo not shown) [Propranolol, reference compound], for which the “Papp Replicate 1” value with Caco-2 (Direction = A2B) was 26.0 10^−6 cms^−1; in the data set with Caco-2 (Direction = B2A), 27.0 10^−6 cms^−1. For the same molecule, the “Papp Replicate 2” value with Caco-2 (Direction = A2B) is listed as 27.4 10^−6 cms^−1; in the data set with Caco-2 (Direction = B2A) it was 26.2 10^−6 cms^−1.
